{"source": "patent US20110105436A1", "about": "“HETEROARYL COMPOUNDS, COMPOSITIONS, AND METHODS OF USE IN CANCER TREATMENT” (AUCKLAND UNISERVICES LIMITED, priority 2008, published 2011)", "key": {"RCC4 and RCC4/VHL cells": {"tested_on": "RCC4 and RCC4/VHL cells", "test": "DNA damage: comet assay and p53 immunoblot", "assay_type": "cell-based", "experimental": "B. XTT assay in RCC4 and RCC4/VHL in presence of STF-62247 (0-40 μM). Each point of the cell survival is calculated by the average of three different experiments in duplicate as the percent of treated on untreated plate. The error bars are represented as the standard error of the mean (SEM) C. qRT-PCR for Glutl, VEGF, PDF and PGK in RCC4 cells with or without HIF-1a, HIF-2a shRNA and in RCC4/VHL. D. Hoescht staining in RCC4 and RCC4/VHL cells with 1.25 μM of STF-62247 for 2 days. Camptothecin was used as positive control E. FACS analysis for apoptosis after an annexin V-FITC staining in presence or absence of propidium iodine (PI) in cells after a treatment in same conditions than in C. F. Immunoblot for active caspase-3 in RCC4 and RCC4/VHL following treatment with 1.25 μM of STF-62247 for 24 hours. Staurosporine was used as positive control (0.2 μM for 24 hours). G,H. Immunostaining of caspase-3 and Ki67 respectively in SN12C and SN12C+shVHL tumor samples untreated or treated with 30 μM of STF-62247.1. Immunoblot for p53 and SerlS phospho-p53 in RCC4 and RCC4/VHL cells after a treatment with 1.25 μM of STF-62247 or doxorubicin for 24 hours."}, "LC3": {"tested_on": "LC3", "test": "LC3 processing by Western blot and immunostaining", "assay_type": "cell-based", "details": "STF-62247 treatment, FIG. 2D, 2E", "experimental": "Western blot analysis. After treatments, cells were lysed in urea buffer (9M urea, 75 mM Tris (pH 7.5), 150 mM b-mercaptoethanol), placed on ice for 10 minutes and sonicated briefly (15 seconds). Extracts were centrifugated at 8,000×g for 10 minutes to eliminate insoluble material. Lysates were quantitated using Bio-Rad protein Assay (Bio-Rad Laboratories) and 20-30 μg of proteins were separated on a 7.5% or 15% bis-acrylamide gels and then transferred onto PVDF membranes. Proteins were visualized using HIF-2α (Novus Biological), HIF-1α, pVHL and BiP (BD Biosciences), LC3 (MBL), Atg5, or α-tubulin antibodies.\nImmunofluorescence staining. Cells were seeded on glass coverslips and at subconfluence, STF-62247 was added at 1.25 μM for RCC4 and 3.75 μM for SN12C. After 20 hours, cells were fixed in 3.7% formaldehyde for 10 min at room temperature and washed in PBS. Then cells were permeabilized in 0.2% Triton X-100 for 5 min at room temperature and washed in PBS. The coverslips were incubated with primary antibody LC3 diluted 1:500 in PBS containing 0.2% BSA for 1 hour at room temperature. Cells were washed three times in PBS-BSA and the bound primary antibody was detected using a fluorescein-conjugated secondary antibody (ALEXA) diluted 1:500 in PBS-BSA and incubated for 1 hour. Coverslips were washed and mounted in mounting medium from Vector Laboratories according to the manufacturer's instructions. Cells were examined with a confocal microscope\nA. Phase contrast pictures of VHL-deficient RCC4 and SN12C-VHL shRNA cells and VHL-positive cells RCC4 and SN12C after 20 hrs of 1.25 μM STF-62247. B. Immunostaining for LC3 following STF-62247 treatment at 1.25 μM for 20 hrs with or without 2 mM of 3-MA in RCC4 with and without VHL cells. After treatment, cells were fixed, permeabilized and processed for the detection of punctuate staining by indirect immunofluorescence. C. Autophagic vacuoles stained with monodansylcadaverine (MDC). After STF-62247 treatment in the same conditions, MDC was added for the last 10 minutes. Cells were fixed, washed with PBS and observed directly under microscope. D. Western blot for LC3 in RCC4, RCC4/VHL, SN12C, and SN12C-VHL shRNA cells after STF-62247 treatment with or without 3-MA. Nutrient starvation (EBSS) is used as positive control. E. Western blot for LC3 in RCC4 and RCC4/VHL with different concentrations of STF-62247. Tubulin was used as loading control. F. Cell viability assay in VHL-deficient RCC4 and wild-type VHL cells treated with 1 mM of 3-MA, 1.25 μM of STF-62247 alone or in combination for 24 hrs. Viability is measured by trypan blue exclusion assay and is represented by the average of three different experiments in duplicate as the percent of treated on untreated cells. The error bars are represented as SEM.\nA. VHL-deficient RCC4 and wild-type VHL were incubated in presence of 10 μM LY294002, or 1 μg/mlBrefeldin A with 1.25 μM of STF-62247 for 20 hrs and the presence of vacuoles was examined under light microscopy. B,C. LC3 processing was evaluated by Western blot after the treatment with Brefeldin A or LY294002 in presence or absence of STF-62247 as described above. Tubulin was used as loading control. D. Cells were treated with 1.25 μM of STF-62247 with or without 2 mM of 3-MA, 1 μg/ml of Brefeldin A for 20 hrs. For the last 15 min, acidic components were stained with 1 μg/ml of acridine orange and visualized under fluorescence microscope. […] F. Quantification of the FACS analysis. The data are calculated as the average of three different experiments as relative units of treated over untreated cells. The error bars are represented as the standard error of the mean (SEM).\nB,C. LC3 processing was evaluated by Western blot after the treatment with U0126 or tunicamycin in presence or absence of STF-62247 as described above. Tubulin was used as loading control."}}, "note": "“Also recorded” adds a separate entry of the source.", "data": [{"smiles": "Cc1cccc(Nc2nc(-c3ccncc3)cs2)c1", "note": "[Compound 5, N-(3-Methylphenyl)-4-(4-pyridinyl)-1,3-thiazol-2-amine]", "values": [{"measurement": "phosphorylation of p53 on serine 15 and total p53 levels", "setting": "RCC4 and RCC4/VHL cells; 1.25 μM, 24 hours, FIG. 7I", "result": "unaffected"}, {"measurement": "DNA damage by comet assay", "setting": "RCC4 and RCC4/VHL cells; data not shown", "result": "did not induce DNA damage"}, {"measurement": "LC3-II (lipidated form)", "setting": "LC3", "result": "induced by STF-62247 treatment; also recorded: increases in a concentration-dependent manner"}]}]}
